The values that follow come from patent publication US6251898A, “Medical use of fluorenone derivatives for treating and preventing brain and spinal injury” (Questcor Pharmaceuticals, Inc., priority 1999, dated 2001).

The subject of this experiment is neuronal damage caused by focal brain ischemia. The experiment in a line: Focal cerebral ischemia, middle cerebral artery occlusion model in rats. In kind it is in vivo, Sprague-Dawley rats. The protocol: Other in vivo tests were also carried out using "focal" brain ischemia (i.e., blood supply to only a portion of the brain is disrupted, as usually occurs during a stroke). These assays used a surgical procedure described in Example 25, in which the right middle cerebral artery (MCA) and the right common carotid artery (CCA) of rats were clamped shut for two hours. The clamps were then removed, and the GERI-E7 was administered subsequently. The rats were sacrificed 3 days later, and brain sections were analyzed using tetrazolium dye, to determine the volumes of brain tissue with large numbers of dead or dying neurons.
In a second set of in vivo tests, a middle cerebral artery occlusion model was used in rats, to evaluate the ability of test compound GERI-E7 to reduce neuronal damage caused by focal brain ischemia. These tests were also performed in the laboratory of Dr. Claude Wasterlain, at the Sepulveda VA Medical Center in Los Angeles.
Male Sprague-Dawley rats (220 to 285 g) were intubated with an 18 gauge gavage needle and artificially respirated with a Harvard small animal respirator, 50 to 60 strokes/min, 2.0 to 3.0 cc. Anesthetization was induced by administering 1 to 2% methoxyflurane in a 1:2 O2 :N2 O gas mixture. To allow for rapid induction of the anesthetic state, succinylcholine (4 mg/kg, i.p.) was given immediately after anesthesia commenced, and surgery began 15 to 20 minutes later. Body temperature was maintained throughout by a heat lamp and rectal probe.
Focal cerebral ischemia was induced by reversibly clipping the right middle cerebral artery (MCA) and the right common carotid artery (CCA), as described in articles such as Kaplan et al 1991. A tracheal incision approximately 2.5 cm long was made, allowing placement of 4-0 suture silk under the CCA. This allowed rapid manipulation of the artery for clip placement. The temporalis muscle was partially excised and a 2 mm burr hole was drilled 2-3 mm rostral to the point of fusion of the zygoma with the temporal bone. Saline was used throughout this procedure for washing and maintenance of moisture.
The MCA was occluded below the rhinal fissure with a Codman Microaneurysm Clip #1. After the MCA was occluded the animal was turned onto its back and the CCA was occluded with a Roboz Microaneurysm Clip RS-5424.
A moistened piece of cotton was placed on the head wound and the tracheal region was partially closed by suture prior to placement of the animal in a warm cage with an oxygen tent. After a two-hour occlusion period (shown to produce a consistently measurable but non-lethal infarct), the clips were removed and methoxyflurane was administered via a nose cone. Visual verification was made for both artery occlusion, and post-occlusion reperfusion.
After the clips were removed and reperfusion was established, each animal was treated with either the GERI-E7 compound, at 20 mg/kg IV, or with the saline vehicle. All test and control groups had 10 animals. The wounds were closed and the animals were returned to their home cages.
Animals were sacrificed 72 hours later, and the brains were perfusion-fixedwith 4% paraformaldehyde. […] Infarct area was measured with an image analysis system at 8 to 10 levels between the posterior hippocampus and piriform olfactory cortex, to the level of the rhinal fissure. Infarct volume was determined by multiplying the average infarct area by the length of the brain between the posterior hippocampus and the piriform olfactory cortex. […]

With `CCC[C@]12CCC(=O)C=C1c1c(cc(OCC3=NCCO3)c(Cl)c1Cl)C2` [GERI-E7, R(+)-2-[[(5,6-dichloro-2,3,9,9a-tetrahydro-3-oxo-9a-propyl-1H-fluoren-7-yl)-oxy]methyl]oxazoline], the Edema result (20 mg/kg IV after 2 h occlusion, 72 h) was “Edema was also reduced”. Also, the “Reduction of area of infarct volume” value (20 mg/kg IV after 2 h occlusion, 72 h, FIG. 13) is listed as “about 50%”. For the setting “animal model used”, the “Reduction of brain damage caused by focal brain ischemia” value was “very effective in reducing brain damage”. For the same compound, the “Reduction of infarct volumes” value is “about 30%” (first round of focal assays) and 50% (second set of assays, new batch stored in liquid nitrogen, mixed with carrier less than 24 hours before injection, average).
